For orientation: half-life means the time in which the quantity being followed falls by half. By IC50 is commonly meant the concentration that inhibits the measured activity by half.

Data set [1] concerns PC-3. Nature of the data set: Induction of apoptosis in human PC-3 cells assessed as mitochondrial membrane potential loss by measuring decrease in red fluorescence at 15 nM incubated for 48 hrs by JC1 staining based flow cytometry analysis (reference value: 93.48 +/- 0.15%). It is filed as functional. The arrangement: scale not given: the % may be the effect or the level left. In general terms: A flow cytometer gives signals particle by particle.

Data set [2] relates to HepG2. Description: Induction of apoptosis in human HepG2 cells assessed as upregulation of Bax protein expression measured after 24 hrs by Western blot analysis. Particulars: dose 7.5-30 nM, DDE = dose-dependent effect. The data set is classed as functional, cell-based.
Data set [3] can be described thus: Metabolic stability in mouse plasma assessed as half life at 40 uM measured upto 5 hrs by LC-MS/MS analysis. The data set is classed as ADME, cell-free.
Data set [4] has as its system HepG2. Nature of the data set: Induction of cell cycle arrest in human HepG2 cells assessed as accumulation S phase at 30 nM incubated for 48 hrs by propidium iodide staining based flow cytometry analysis (reference value: 17.14 +/- 0.34%). It is filed as functional.
Data set [5] is described as follows: Toxicity in ICR mouse allografted with mouse H22 cells assessed as pathological changes in spleen at 20 mg/kg, iv administered qd measured after 21 days by H and E staining based analysis. It is filed as organism-based. The note with it: in vivo, 504 h, time 21 day.
Data set [6] in a line: Metabolic stability in mouse assessed as intrinsic clearance. It is filed as ADME. The note with it: 1 h, 1 µM, time < 60 min.
Another data set has as its system MCF7. Nature of the data set: Antiproliferative activity against human MCF7 cells assessed as inhibition of cell growth measured after 72 hrs by MTT assay. The data set is classed as functional, cell-based. The note with it: MCF7, 72 h. For orientation: Formazan colour is commonly taken as a measure of viable cells.
Data set [7] has as its system PC-3. Description: Induction of apoptosis in human PC-3 cells assessed as mitochondrial membrane potential loss by measuring increase in green fluorescence at 7.5 nM incubated for 48 hrs by JC1 staining based flow cytometry analysis (reference value: 6.50 +/- 0.17%). The data set is classed as functional.
Data set [8] relates to HepG2. Description: Induction of apoptosis in human HepG2 cells assessed as upregulation of Bad protein expression measured after 24 hrs by Western blot analysis. Particulars: dose 7.5-30 nM, DDE = dose-dependent effect. The data set is classed as functional, cell-based.
The target in the next data set is Tubulin (Homo sapiens) (UniProt P68371+Q9H4B7+P0DPH7+P68366+Q13509+Q71U36+P04350+Q3ZCM7+P07437+P68363+Q9BQE3+Q6PEY2+Q13885+Q9BVA1+Q9BUF5). Nature of the data set: Disruption of microtubule network in human HepG2 cells at 7.5 to 30 nM measured after 2 hrs by DAPI staining based immunofluorescence microscopic assay. The data set is classed as cell-based. The note with it: dose 7.5-30 nM.

Data set [9] is described as follows: Induction of apoptosis in ICR mouse cardiac tissue at 20 mg/kg, iv administered qd measured after 21 days by TUNEL assay. It is filed as toxicity, organism-based. The note with it: in vivo, 504 h, time 21 day.
The nature of data set [10]: Metabolic stability in mouse assessed as hepatic clearance. The data set is classed as ADME. The note with it: 1 h, 1 µM, time < 60 min.
Data set [11] addresses T1, Protein deacetylase HDAC6 (Homo sapiens, UniProt Q9UBN7).
T1 sequence (Q9UBN7 whole entry): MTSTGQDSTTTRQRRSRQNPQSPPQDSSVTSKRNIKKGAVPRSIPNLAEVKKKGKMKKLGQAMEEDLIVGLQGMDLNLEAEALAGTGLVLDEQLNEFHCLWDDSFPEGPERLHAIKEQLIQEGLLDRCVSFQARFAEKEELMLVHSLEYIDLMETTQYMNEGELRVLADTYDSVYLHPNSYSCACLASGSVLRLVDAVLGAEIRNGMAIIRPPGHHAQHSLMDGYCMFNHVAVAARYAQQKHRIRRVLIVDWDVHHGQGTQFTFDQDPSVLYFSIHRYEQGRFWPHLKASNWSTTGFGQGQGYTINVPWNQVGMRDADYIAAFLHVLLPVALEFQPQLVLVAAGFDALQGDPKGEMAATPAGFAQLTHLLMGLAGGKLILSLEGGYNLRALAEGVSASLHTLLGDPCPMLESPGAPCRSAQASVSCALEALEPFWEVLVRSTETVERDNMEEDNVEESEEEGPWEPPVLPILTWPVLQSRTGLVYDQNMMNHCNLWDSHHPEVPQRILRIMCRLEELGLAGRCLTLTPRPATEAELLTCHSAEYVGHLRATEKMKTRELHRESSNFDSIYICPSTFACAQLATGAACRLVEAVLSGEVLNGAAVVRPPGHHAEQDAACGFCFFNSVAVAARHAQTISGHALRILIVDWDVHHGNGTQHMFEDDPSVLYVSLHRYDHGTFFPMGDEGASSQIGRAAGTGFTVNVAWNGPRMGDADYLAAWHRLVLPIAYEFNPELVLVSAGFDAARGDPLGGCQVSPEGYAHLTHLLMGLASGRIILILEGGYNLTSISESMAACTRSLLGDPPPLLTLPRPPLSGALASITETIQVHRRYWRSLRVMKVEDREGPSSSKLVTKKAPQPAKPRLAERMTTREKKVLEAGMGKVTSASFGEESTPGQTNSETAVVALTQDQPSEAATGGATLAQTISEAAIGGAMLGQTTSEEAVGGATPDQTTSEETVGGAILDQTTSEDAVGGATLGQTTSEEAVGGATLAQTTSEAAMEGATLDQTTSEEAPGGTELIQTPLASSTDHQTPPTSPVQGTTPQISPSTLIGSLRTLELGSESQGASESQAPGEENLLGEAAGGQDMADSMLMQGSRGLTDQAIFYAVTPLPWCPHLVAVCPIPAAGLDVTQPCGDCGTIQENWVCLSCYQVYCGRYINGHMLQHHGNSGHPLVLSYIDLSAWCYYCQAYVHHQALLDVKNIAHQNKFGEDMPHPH
Description: Inhibition of HDAC6 in human HeLa cells using BOC-K(Ac)-AMC as substrate measured after 30 mins by fluorescence based microtiter plate reader assay. The data set is classed as cell-based.

Data set [12] relates to HepG2. Nature of the data set: Induction of apoptosis in human HepG2 cells assessed as early apoptotic cells at 7.5 nM incubated for 48 hrs by Annexin-V/PI-staining based flow cytometry (reference value: 4.61 +/- 0.46%). It is filed as functional.
Data set [13] in a line: Toxicity in ICR mouse allografted with mouse H22 cells assessed as pathological changes in liver at 20 mg/kg, iv administered qd measured after 21 days by H and E staining based analysis. Particulars: in vivo, 504 h, time 21 day. It is filed as organism-based.
A further data set deals with Histone deacetylase 2 (Homo sapiens, UniProt Q92769). Nature of the data set: Inhibition of HDAC2 in human HeLa cells using BOC-K(Ac)-AMC as substrate measured after 30 mins by fluorescence based microtiter plate reader assay. The data set is classed as cell-based.
Sequence of Histone deacetylase 2 (Q92769 whole entry): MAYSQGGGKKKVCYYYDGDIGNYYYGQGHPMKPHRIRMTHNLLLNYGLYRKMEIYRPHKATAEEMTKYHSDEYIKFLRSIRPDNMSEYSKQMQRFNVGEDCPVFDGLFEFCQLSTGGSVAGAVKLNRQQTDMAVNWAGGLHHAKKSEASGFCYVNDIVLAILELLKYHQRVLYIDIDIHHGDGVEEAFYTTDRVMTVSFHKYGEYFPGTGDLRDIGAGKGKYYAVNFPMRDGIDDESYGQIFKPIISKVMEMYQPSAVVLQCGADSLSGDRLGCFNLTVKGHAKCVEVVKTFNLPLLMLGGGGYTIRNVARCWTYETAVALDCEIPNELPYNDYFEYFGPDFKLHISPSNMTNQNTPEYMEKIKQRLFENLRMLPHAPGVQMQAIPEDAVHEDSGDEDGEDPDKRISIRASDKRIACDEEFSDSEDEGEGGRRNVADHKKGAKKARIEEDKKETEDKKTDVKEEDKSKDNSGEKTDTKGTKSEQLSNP
The target of another data set is Histone deacetylase 1 (Homo sapiens, UniProt Q13547). Description: Inhibition of HDAC1 in human HeLa cells using BOC-K(Ac)-AMC as substrate measured after 30 mins by fluorescence based microtiter plate reader assay. It is filed as cell-based.
Sequence of Histone deacetylase 1 (Q13547 whole entry): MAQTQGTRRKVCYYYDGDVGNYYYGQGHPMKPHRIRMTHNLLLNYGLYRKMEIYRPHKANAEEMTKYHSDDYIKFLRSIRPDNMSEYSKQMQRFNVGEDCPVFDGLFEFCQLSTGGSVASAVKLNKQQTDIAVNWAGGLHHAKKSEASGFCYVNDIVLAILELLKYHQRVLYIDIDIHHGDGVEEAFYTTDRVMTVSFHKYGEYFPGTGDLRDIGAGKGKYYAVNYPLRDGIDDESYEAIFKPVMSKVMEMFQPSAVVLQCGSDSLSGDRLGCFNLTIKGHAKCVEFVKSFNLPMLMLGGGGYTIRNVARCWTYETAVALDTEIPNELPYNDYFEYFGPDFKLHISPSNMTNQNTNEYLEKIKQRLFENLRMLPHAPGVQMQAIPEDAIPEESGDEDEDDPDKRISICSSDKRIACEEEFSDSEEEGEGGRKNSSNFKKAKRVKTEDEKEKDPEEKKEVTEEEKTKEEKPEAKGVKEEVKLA
In data set [14] the test system is HepG2. Nature of the data set: Induction of apoptosis in human HepG2 cells assessed as late apoptotic cells at 7.5 nM incubated for 48 hrs by Annexin-V/PI-staining based flow cytometry (reference value: 2.53 +/- 0.34%). It is filed as functional.
Data set [15] is described as follows: Cardiotoxicity in ICR mouse allografted with mouse H22 cells assessed as effect on T wave at 20 mg/kg, iv administered qd measured after 21 days by ECG analysis. It is filed as toxicity, organism-based. Particulars: in vivo, 504 h, time 21 day.
Data set [16] is described as follows: Metabolic stability in mouse plasma assessed as compound remaining at 40 uM measured after 5 hrs by LC-MS/MS analysis (reference value: 100%). The data set is classed as ADME, cell-free.
In data set [17] the test system is HepG2. Nature of the data set: Induction of cell cycle arrest in human HepG2 cells assessed as accumulation G2 phase at 7.5 nM incubated for 48 hrs by propidium iodide staining based flow cytometry analysis (reference value: 23.55 +/- 0.29%). It is filed as functional.

Calls of active or inactive are those of the source. The calls are words filed in the database; no cut-off is given here.

Take `COc1ccc(CNC(=O)c2cc(F)ccc2N2CCOCC2)cc1/C=C/C(=O)NO`: the Activity was 61.56% in the data set on PC-3 [1]; “Dde” with HepG2 [2]; 23.58% in the data set with HepG2 [4]; “Non-Toxic” in data set [5]; 23.22% with PC-3 [7]; “Dde” in the data set on HepG2 [8]. In addition, the Activity entry in data set [9] is listed as “Non-Toxic”; in the data set on HepG2 [12] it was 20.15%; in data set [13] it was “Non-Toxic”; with HepG2 [14] it was 6.89%; in [15], “Non-Toxic”; in the data set with HepG2 [17] it was 24.42%. In addition, in [3], the half-life at 40 µM was 2.1 h. Besides, in [6], the CL was found to be 2.82 mL/min. Further, the IC50 came out at 27 nM in the data set on MCF7, 138 nM in [11], 135 nM at Histone deacetylase 2 and 115 nM against Histone deacetylase 1. Further, at Tubulin (Homo sapiens), the outcome was Active. For the same molecule, the CLH in data set [10] worked out at 1.45 mL/min. Also, the Stability in [16] amounted to 16%.

The values are drawn from ChEMBL document CHEMBL5137082, “Discovery of a Novel Vascular Disrupting Agent Inhibiting Tubulin Polymerization and HDACs with Potent Antitumor Effects” (J Med Chem, 2022).
